The source made the active and inactive calls. The rule behind the calls is not given here.
Key:
[1] = biological target: Stimulator of interferon genes protein (Homo sapiens) (UniProt Q86WV6); experiment: Agonist activity at STING in human THP-1 cells assessed as increase in IFNB mRNA level at 20 uM measured for 4 hrs by qPCR analysis; assay type: cell-based; details: filed as agonist
[2] = biological target: Stimulator of interferon genes protein (Homo sapiens) (UniProt Q86WV6); experiment: Agonist activity at STING in human THP-1 cells assessed as decrease in STING monomer level at 5 to 40 uM by Western blotting analysis; assay type: cell-based; details: filed as agonist, dose 5-40 µM
[3] = tested on: Human alphaherpesvirus 1; experiment: Antiviral activity against HSV-1-GFP infected in human STING overexpressing HeLa cells assessed as reduction in viral infection by fluorescent microscopy analysis; assay type: functional, organism-based
[4] = tested on: CT26; experiment: Antitumor activity against mouse CT26 cells allografted in […] mouse assessed as reduction in tumor development at 300 ug, IT administered every 2 days; assay type: functional, cell-based; details: dose 300.0 µg
[5] = Toxicity in C57/BL6 mouse allografted with mouse B16-F10 cells assessed as change in body weight at 300 ug, IT administered every 2 days; assay type: cell-based; details: in vivo, other, 48 h, dose 300 µg
[6] = Toxicity in C57/BL6 mouse allografted with mouse MC38 cells assessed as change in body weight at 300 ug, IT administered every 2 days; assay type: cell-based, MC-38; details: in vivo, other, 48 h, dose 300 µg
[7] = Toxicity in C57/BL6 mouse xenografted with mouse MC38 cells assessed as organ damage at 300 ug, IT administered every 2 days by hematoxylin and eosin staining based histological analysis; assay type: cell-based, MC-38; details: in vivo, other, 48 h, dose 300 µg
[8] = tested on: MC-38; experiment: Antitumor activity against mouse MC38 cells allografted in C57/BL6 mouse assessed as increase in NK cells in tumor tissue at 300 ug, IT administered every 2 days by flow cytometry analysis (reference value: 14%); assay type: functional; details: dose 300 µg, time 2 day
[9] = tested on: MC-38; experiment: Antitumor activity against mouse MC38 cells allografted in C57/BL6 mouse assessed as increase in NK cells in spleen at 300 ug, IT administered every 2 days by flow cytometry analysis (reference value: 3.95%); assay type: functional; details: dose 300 µg, time 2 day
[10] = tested on: THP-1; experiment: Upregulation of IFNB mRNA level in STING-knockout human THP-1 cells at 20 uM measured for 4 hrs by qPCR analysis; assay type: functional, cell-based

Chain of Stimulator of interferon genes protein (Homo sapiens) (Q86WV6 whole entry): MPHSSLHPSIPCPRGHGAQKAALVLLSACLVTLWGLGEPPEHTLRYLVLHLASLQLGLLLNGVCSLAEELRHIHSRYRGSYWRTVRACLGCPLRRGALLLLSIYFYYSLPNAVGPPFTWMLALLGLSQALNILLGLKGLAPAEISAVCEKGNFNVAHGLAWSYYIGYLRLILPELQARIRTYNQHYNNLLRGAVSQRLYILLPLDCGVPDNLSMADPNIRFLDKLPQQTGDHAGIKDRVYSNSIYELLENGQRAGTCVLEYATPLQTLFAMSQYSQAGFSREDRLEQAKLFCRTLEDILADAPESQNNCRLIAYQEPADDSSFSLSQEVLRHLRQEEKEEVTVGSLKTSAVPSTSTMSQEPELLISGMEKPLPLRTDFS

SMILES: CC(NCCC(c1ccccc1)c1ccccc1)c1ccccc1 (stereo not given) [FENDILINE]
- Activity [1]: Active
- Activity [2]: Active
- Activity [3]: Active
- Activity [4]: Active
- Activity [5]: Non-Toxic
- Activity [6]: Non-Toxic
- Activity [7]: Non-Toxic
- Activity [8]: 24%
- Activity [9]: 5.94%
- Activity [10]: inactive

From ChEMBL document CHEMBL5518165, “M335, a novel small-molecule STING agonist activates the immune response and exerts antitumor effects” (Eur J Med Chem, 2024)
